Laboratory results as given in patent publication US20100192451A1, “MOSQUITO ATTRACTANT COMPOSITIONS AND METHODS” (priority 2008, published 2010).

Columns and labels:
gravid Ae. aegypti [1] = assay: Egg-laying (contact-mediated) binary choice bioassay; format: in vivo, Aedes aegypti; conditions: for induction of egg laying by synthetic compounds: 1, 10 and 100 ng in 30 mL water
Protocol: Modifications of the olfactory- and contact-mediated bioassays previously described (Trexler J D, Apperson C S, Schal C (1998) J Med Entomol 35:967-976) were used to measure the response of gravid mosquitoes to plant infusions (or bacterial compounds). Briefly, two 125-mL polypropylene cups (test and control) were placed randomly in diagonal corners of a Plexiglas cage (30×30×30 cm) that was fitted with a stockinet cloth sleeve (AlbaHealth, Rockwood, Tenn.). Each cup was filled with 30 mL of either test or control solution. White paper sleeves were placed around each bioassay cup to mask visual cues presented by darkly colored leaf infusions. Adults had ad libitum access to water contained in a polypropylene cup that was fitted with a lid with a cotton wick protruding through a hole in the lid. For egg-laying bioassays, either one or five gravid females were released in each replicate cage. Cages were placed randomly on racks in a room where environmental conditions were the same as in the insectary. After a 24 h exposure period, eggs laid on the surface of the water in the test and control cups were counted. In olfactory bioassays, 10 gravid females were released in each bioassay cage. A circular metal wire-mesh screen covered with insect glue (Tanglefoot; Tanglefoot Co.) was inserted in each cup on top of an insert cut from a 120-mL polypropylene cup. Sticky screens were placed above test and control media, 2.5 cm below the lip of each cup. The mesh size of the metal screen prevented females from entering without landing on the screen. Therefore, positive or negative responses to the test infusions were measured by the numbers of females trapped during a 24 h exposure period on the sticky screen in the test and control cups.
For each replicate bioassay cage, the numbers of eggs laid in the test and control cups were converted to the proportion of the total number of eggs laid. The proportions were subjected to an arcsin√x transformation to achieve approximate normality. A one-tailed paired t test was used to determine whether differences in the mean transformed proportion of eggs deposited in test and control cups were statistically significant.
Synthetic compounds were bioassayed by placing hexane solutions on the surface of sterile distilled water; water in control cups was treated with hexane alone. The hexane was evaporated in a fume hood before bioassays commenced. Each bioassay was with a single female and lasted 72 h.

gravid Ae. aegypti [2] = assay: as above; format: in vivo, Aedes aegypti; conditions: for Eggs per assay: five females per assay, 24-h
[3] = dose 1 ng in 30 mL water, single female, 72 h
[4] = dose 10 ng in 30 mL water, single female, 72 h
[5] = dose 10 ng, single female, 72 h
[6] = dose 100 ng in 30 mL water, single female, 72 h
[7] = dose 100 ng, single female, 72 h
[8] = 1 ng, five females, 24 h assays
[9] = dose 0.01 ng, five females per assay, 24-h
[10] = dose 0.1 ng, five females per assay, 24-h
[11] = dose 1.0 ng, five females per assay, 24-h
[12] = dose 0.01 mg, single female, 72 h
[13] = dose 0.1 mg, single female, 72 h
[14] = dose 1.0 mg, single female, 72 h

| Compound | Treatment, % (eggs in treatment cup) (gravid Ae. aegypti [1]; [3]) | Eggs per assay (gravid Ae. aegypti [1]; dose 1 ng, single female, 72 h) | Treatment, % (eggs in treatment cup) (gravid Ae. aegypti [1]; [4]) | Eggs per assay (gravid Ae. aegypti [1]; [5]) | Treatment, % (eggs in treatment cup) (gravid Ae. aegypti [1]; [6]) | Eggs per assay (gravid Ae. aegypti [1]; [7]) | induction of egg laying by synthetic compounds (gravid Ae. aegypti [1]; single female, 72 h) | also measured |
| --- | --- | --- | --- | --- | --- | --- | --- | --- |
| CCCCCCCCCCCCCCCC(=O)O [Hexadecanoic acid] | 53.4% | 63.7 ± 4.2 | 43.2% | 63.5 ± 4.9 | 38.2% | 71.8 ± 4.8 |  |  |
| CCCCCCCCC(=O)O [Nonanoic acid] | 38.6% | 70.9 ± 4.0 | 58.3% | 74.3 ± 6.1 | 69.1% | 80.0 ± 3.3 | highly effective at inducing egg laying |  |
| CCCCCCCCCCCCCC(=O)O [Tetradecanoic acid] | 45.4% | 79.6 ± 2.7 | 81.0% | 87.7 ± 5.1 | 62.1% | 80.2 ± 5.2 | highly effective at inducing egg laying | eggs per female in 24 h (gravid Ae. aegypti [1]; [8]): 43.4±3.9; diversion of oviposition to treated water (gravid Ae. aegypti [1]; 10 ng, single female, 72 h): diverted the greatest amount of oviposition to the treated water; Eggs per assay (gravid Ae. aegypti [1]; [9]): 318.5 ± 14.4; Treatment, % (eggs in treatment cup) (gravid Ae. aegypti [1]; [9]): 52.3%; Eggs per assay (gravid Ae. aegypti [1]; [10]): 232.1 ± 22.3; Treatment, % (eggs in treatment cup) (gravid Ae. aegypti [1]; [10]): 57.8%; Eggs per assay (gravid Ae. aegypti [1]; [11]): 216.8 ± 19.4; Treatment, % (eggs in treatment cup) (gravid Ae. aegypti [1]; [11]): 76.9%; Treatment, % (eggs in treatment cup) (gravid Ae. aegypti [1]; dose 10 ng, five females per assay, 24-h): 57.9%; Treatment, % (eggs in treatment cup) (gravid Ae. aegypti [1]; dose 100 ng, five females per assay, 24-h): 38.7%; oviposition stimulation (gravid Ae. aegypti [2]; [8]): highly stimulatory; Eggs per assay (gravid Ae. aegypti [2]; dose 10 ng): 196.4 ± 23.2; Eggs per assay (gravid Ae. aegypti [2]; dose 100 ng): 260.4 ± 30.9 |
| CCCCCCCCCC(=O)O [Decanoic acid] | 43.7% | 60.0 ± 5.6 | 52.2% | 61.3 ± 5.0 | 45.8% | 67.0 ± 7.0 |  |  |
| CCCCCCCCCCCCCC(=O)OC [Tetradecanoic acid, methyl ester] | 55.0% | 68.3 ± 5.4 | 70.2% | 64.0 ± 7.1 | 51.0% | 70.6 ± 6.0 | highly effective at inducing egg laying |  |
| CCCCCCCCCCCCCCCCCC(=O)O [Octadecanoic acid] | 55.1% | 71.3 ± 3.3 | 46.4% | 69.0 ± 3.6 | 58.4% | 64.8 ± 4.8 |  |  |
| CCCCCCCCCCCCCCCC(=O)OC [Hexadecanoic acid, methyl ester] | 34.7% | 51.0 ± 3.5 | 59.1% | 51.3 ± 3.0 | 60.4% | 58.6 ± 3.8 |  |  |
| CCCCCCCCCCCC(=O)O [Dodecanoic acid] | 47.0% | 67.3 ± 4.0 | 43.4% | 66.3 ± 3.1 | 47.6% | 63.8 ± 3.4 |  | Eggs per assay (gravid Ae. aegypti [1]; [12]): 66.5 ± 4.2; Treatment, % (eggs in treatment cup) (gravid Ae. aegypti [1]; [12]): 52.2%; Eggs per assay (gravid Ae. aegypti [1]; [13]): 64.4 ± 2.9; Treatment, % (eggs in treatment cup) (gravid Ae. aegypti [1]; [13]): 45.8%; Eggs per assay (gravid Ae. aegypti [1]; [14]): 60.2 ± 2.8; Treatment, % (eggs in treatment cup) (gravid Ae. aegypti [1]; [14]): 42.2% |
